# From patent US20240216401A1, “COMBINATION THERAPY BY USING AKR1C3-ACTIVATED COMPOUND WITH IMMUNE CHECKPOINT INHIBITOR” (OBI Pharma, Inc., priority 2021, published 2024)
# Where “and” joins values, the source holds several entries; their conditions need not be identical. Equal entries are not always repeated. Entries after “also recorded” stand apart in the source; their conditions may differ.
# How the values were obtained:
# Format in all cases: in vivo, Mus musculus
# HepG2 tumor = assay: Example 1: tumor volume, tumor weight and TGI in HepG2 tumor bearing humanized mice
# Description: (§1) Each group contains five mice. The human hepatocellular carcinoma cell line HepG2 were subcutaneously inoculated to the advanced immune deficiency mice. Total of 30 mice were included in this study.
# 2.2. […] The subcutaneous injection volume was […].
# (§2) 3.1. […] The injection was performed using insulin syringe with the dosage of 10 mg/kg (Dosage of injection was changed to 20 mg/kg from Day 15) and injection volume of 10 mL/kg. […] The reference item was administered for G1. The procedure followed the standards of sample administration.
# (§3) 3.2. The test item anti-hPD-L1 antibody or reference items were intraperitoneally injected to the mice on Day 8 after the inoculation of tumor cells. The injection was performed using insulin syringe with the dosage of 10 mg/kg (Dosage of injection was changed to 20 mg/kg from Day 15) and injection volume of 10 mL/kg. The test item anti-hPD-L1 was continuously administered on Day 8, 11, 15, 18, 22, 25, 29 and 32 for G4 and G6. The reference item was administered for G1. The procedure followed the standards of sample administration.
# (§4) 3.3. […] The injection was performed using insulin syringe with the dosage of 1 mg/kg and injection volume of 5 mL/kg. […] The reference item was administered for G1. The procedure followed the standards of sample administration.
# The measurement was performed from the next day of the inoculation. The tumor volumes were measured and recorded twice a week (Mon., Thur.). Tumor volume was calculated by ellipsoid equation according to the records ((major axis×minor axis×minor axis)×(π/6)).
# Tumor volumes were used to calculate tumor growth inhibition (TGI) rates according to the following formula: TGI (%)=[1−(Ti−T0)/(Ci−C0)]×100, where Ti and Ci indicate the mean tumor volume in the treatment groups and vehicle group at the end of the experiment (Day 35). Whereas, T0 and C0 indicate the mean tumor volumes in the treatment group and vehicle group at the beginning of the experiment (Day 1).
# (§5) Mice were sacrificed by CO2 euthanasia at the end of the study duration, and the connective tissue around tumor was resected. The tumor samples were then removed and weighed. The half tissue was fixed in 10% formaldehyde and then embedded in paraffin; the other half was prepared for the isolation of tumor-infiltrating lymphocytes (TILs).
# [1] = system: PD-L1^+ cells in tumor-infiltrating lymphocytes; assay: Example 1: flow cytometry, percentage of PD-L1 cells in TILs; details: individual animal
# Description: as §5
# (§6) The half of mouse tumors were dissected into smaller fragments using scalpels and then digested with a cocktail of collagenase, DNase I, and Hyaluronidase (Collagenase #C5138, DNase I #D5025, Hyaluronidase #H6254, SigmaAldrich) for at least 2 hours.
# (§7) Cells were stained with the fluorescently conjugated surface antibodies and incubated for 30 minutes at 4° C., and then resuspended in staining buffer for flow cytometric analysis. Flow cytometry was done using a Navios EX Flow Cytometer (Beckman Coulter). Data were analyzed using the Kaluza Analysis Software (Beckman Coulter).
# [2] = system: CD8^+ cytotoxic T cells (CTL) in tumor-infiltrating lymphocytes; assay: Example 1: flow cytometry, percentage of CTL cells in TILs
# Description: as §5, §6, §7
# [3] = system: CD4^+ T helper cells in tumor-infiltrating lymphocytes; assay: Example 1: flow cytometry, percentage of TH cells in TILs; details: individual mice
# Description: as §5, §6, §7
# [4] = system: NK cells in tumor-infiltrating lymphocytes; assay: Example 1: flow cytometry, percentage of NK cells in TILs; details: individual mice
# Description: as §5, §6, §7
# [5] = Example 1: body weight and mortality of HepG2 tumor bearing humanized mice; details: OBI-3424 1 mg/kg IV, antibody 10 mg/kg IP (20 from Day 15)
# Description: as §1, §2, §3, §4
# The measurement was performed from the next day of the inoculation. The animal body weights were measured and recorded twice per week.
# [6] = TILs, flow cytometer, individual mice
# [7] = TILs, gate CD45^+CD8^+ cells, individual mice
compound,measurement,setting,value
"C[C@H](OP(=O)(N1CC1)N1CC1)c1ccc([N+](=O)[O-])c(Oc2cccc(C(=O)N(C)C)c2)c1 [OBI-3424, (S)-1-(3-(3-N,N-dimethylaminocarbonyl)phenoxyl-4-mtrophenyl)-1-ethyl-N,N′-bis(ethylene)phosphoramidate]","Tumor volume, Mean","HepG2 tumor; D 1, group mean, OBI-3424 1 mg/kg IV, antibody 10 mg/kg IP (20 from Day 15)",397.08 mm^3
same,"Tumor volume, Mean","HepG2 tumor; D 4, group mean, OBI-3424 1 mg/kg IV, antibody 10 mg/kg IP (20 from Day 15)",295.20 mm^3
same,"Tumor volume, Mean","HepG2 tumor; D 7, group mean, OBI-3424 1 mg/kg IV, antibody 10 mg/kg IP (20 from Day 15)",298.28 mm^3
same,"Tumor volume, Mean","HepG2 tumor; D 11, group mean, OBI-3424 1 mg/kg IV, antibody 10 mg/kg IP (20 from Day 15)",344.17 mm^3
same,"Tumor volume, Mean","HepG2 tumor; D 14, group mean, OBI-3424 1 mg/kg IV, antibody 10 mg/kg IP (20 from Day 15)",385.09 mm^3
same,"Tumor volume, Mean","HepG2 tumor; D 18, group mean, OBI-3424 1 mg/kg IV, antibody 10 mg/kg IP (20 from Day 15)",535.36 mm^3
same,"Tumor volume, Mean","HepG2 tumor; D 21, group mean, OBI-3424 1 mg/kg IV, antibody 10 mg/kg IP (20 from Day 15)",627.45 mm^3
same,"Tumor volume, Mean","HepG2 tumor; D 25, group mean, OBI-3424 1 mg/kg IV, antibody 10 mg/kg IP (20 from Day 15)",773.19 mm^3
same,"Tumor volume, Mean","HepG2 tumor; D 28, group mean, OBI-3424 1 mg/kg IV, antibody 10 mg/kg IP (20 from Day 15)",718.91 mm^3
same,"Tumor volume, Mean","HepG2 tumor; D 32, group mean, OBI-3424 1 mg/kg IV, antibody 10 mg/kg IP (20 from Day 15)",643.09 mm^3
same,"Tumor volume, Mean","HepG2 tumor; D 35, group mean (mean±SEM), OBI-3424 1 mg/kg IV, antibody 10 mg/kg IP (20 from Day 15)",590.62±164.32 mm^3 and 590.62 mm^3
same,"Tumor weight, Mean","HepG2 tumor; D 35, group mean, OBI-3424 1 mg/kg IV, antibody 10 mg/kg IP (20 from Day 15)",274.44 mg
same,mean tumor volume compared with vehicle (in words),"HepG2 tumor; Day 35, vs vehicle (G1), Student's t-test",Significantly reduced; also recorded: significantly suppressed
same,effect on tumor growth (conclusion in words),HepG2 tumor; HepG2 humanized mouse model,efficiently anti-tumor effect
same,TGI,"HepG2 tumor; from mean tumor volumes Day 35 vs Day 1, relative to vehicle, OBI-3424 1 mg/kg IV, antibody 10 mg/kg IP (20 from Day 15)",83.13%
same,tumor weight compared with vehicle (in words),"HepG2 tumor; sacrifice Day 36, vs vehicle (G1)",significantly suppressed
same,CD45^+ cells Cell count (×10^6),[1],1.86 ×10^6 and 1.34 ×10^6 and 2.40 ×10^6 and 1.50 ×10^6 and 2.54 ×10^6
same,CD45^+ cells Gated %,[1],58.88% and 28.16% and 40.69% and 79.75% and 79.11%
same,CD45^+ cells Total %,[1],42.64% and 18.14% and 29.31% and 61.46% and 62.53%
same,Total PD-L1^+ cells (PD-L1^+) Cell count (×10^5),[1],2.17 ×10^5 and 14.22 ×10^5 and 4.16 ×10^5 and 0.26 ×10^5 and 0.25 ×10^5
same,"Total PD-L1^+ cells (PD-L1^+), Total %",[1],4.97% and 19.30% and 5.09% and 1.08% and 0.62%
same,"Total PD-L1^+ cells (PD-L1^+), Total cells Gated %",[1],5.67% and 24.15% and 6.02% and 1.15% and 0.65%
same,Total cells Cell count (×10^6),[1],3.82 ×10^6 and 5.89 ×10^6 and 6.92 ×10^6 and 2.30 ×10^6 and 3.83 ×10^6
same,Total cells Gated %,[1],87.63% and 79.89% and 84.57% and 94.06% and 94.44%
same,Total cells Total %,[1],87.63% and 79.89% and 84.57% and 94.06% and 94.44%
same,CD8^+ cytotoxic T cells (CTL) population in tumors compared with vehicle (in words),"[2]; Example 1, TILs at sacrifice, flow cytometry",significantly elevated
same,CD25^+ CTL cells (CD45^+CD8^+ CD25^+) Total %,[2]; [6],0.27% and 0.30% and 0.77% and 0.52% and 0.28%
same,CTL cells (CD45^+CD8^+) Total %,[2]; [6],20.93% and 12.12% and 21.14% and 45.53% and 36.08%
same,PD-1^+ CTL cells (CD45^+CD8^+ PD-1^+) Total %,[2]; [6],21.41% and 12.30% and 20.63% and 41.26% and 28.90%
same,CTL cells (CD45^+CD8^+) CD45^+ Gated %,"[2]; TILs, gate CD45^+ cells, individual mice",49.08% and 66.81% and 72.14% and 74.09% and 57.70%
same,CD25^+ CTL cells (CD45^+CD8^+ CD25^+) CTL Gated %,[2]; [7],1.27% and 2.48% and 3.64% and 1.13% and 0.78%
same,PD-1^+ CTL cells (CD45^+CD8^+ PD-1^+) CTL Gated %,[2]; [7],92.13% and 91.25% and 99.25% and 91.79% and 85.06%
same,CD25^+ CTL cells (CD45^+CD8^+ CD25^+) Cell count,"[2]; TILs, individual mice",0.12 ×10^5 and 0.22 ×10^5 and 0.63 ×10^5 and 0.13 ×10^5 and 0.11 ×10^5
same,CTL cells (CD45^+CD8^+) Cell count,"[2]; TILs, individual mice",9.13 ×10^5 and 8.93 ×10^5 and 17.29 ×10^5 and 11.11 ×10^5 and 14.65 ×10^5
same,PD-1^+ CTL cells (CD45^+CD8^+ PD-1^+) Cell count,"[2]; TILs, individual mice",9.33 ×10^5 and 9.07 ×10^5 and 16.88 ×10^5 and 10.07 ×10^5 and 11.73 ×10^5
same,CD25^+ TH cells (CD45^+CD4^+ CD25^+) Total %,[3]; flow cytometer,1.06% and 0.68% and 0.82% and 0.52% and 0.53%
same,PD-1^+ TH cells (CD45^+CD4^+ PD-1^+) Total %,[3]; flow cytometer,19.45% and 9.29% and 13.77% and 15.00% and 16.75%
same,TH cells (CD45^+CD4^+) Total %,[3]; flow cytometer,18.53% and 9.14% and 14.30% and 14.34% and 16.81%
same,TH cells (CD45^+CD4^+) CD45^+ Gated %,[3]; gate CD45^+ cells,43.45% and 50.36% and 48.78% and 23.33% and 26.88%
same,CD25^+ TH cells (CD45^+CD4^+CD25^+) TH Gated %,[3]; gate CD45^+CD4^+ cells,5.70% and 7.39% and 5.74% and 3.63% and 3.15%
same,PD-1^+ TH cells (CD45^+CD4^+ PD-1^+) TH Gated %,[3]; gate CD45^+CD4^+ cells,99.46% and 98.15% and 99.75% and 97.06% and 97.78%
same,CD25^+ TH cells (CD45^+CD4^+ CD25^+) Cell count,[3],0.46 ×10^5 and 0.50 ×10^5 and 0.67 ×10^5 and 0.13 ×10^5 and 0.22 ×10^5
same,PD-1^+ TH cells (CD45^+CD4^+ PD-1^+) Cell count,[3],8.48 ×10^5 and 6.85 ×10^5 and 11.26 ×10^5 and 3.66 ×10^5 and 6.80 ×10^5
same,TH cells (CD45^+CD4^+) Cell count,[3],8.08 ×10^5 and 6.74 ×10^5 and 11.70 ×10^5 and 3.50 ×10^5 and 6.82 ×10^5
same,CD16^+ NK cells (CD45^+CD56^+ CD16^+) Total %,[4]; flow cytometer,0.39% and 0.21% (2×) and 0.24% and 0.17%
same,NK cells (CD45^+CD56^+) Total %,[4]; flow cytometer,2.47% and 1.62% and 1.15% and 2.73% and 1.39%
same,PD-1^+ NK cells (CD45^+CD56^+PD-1^+) Total %,[4]; flow cytometer,3.26% and 1.51% and 1.63% and 2.76% and 2.38%
same,NK cells (CD45^+CD56^+) CD45^+ Gated %,[4]; gate CD45^+ cells,6.06% and 9.96% and 4.16% and 5.20% and 2.33%
same,CD16^+ NK cells (CD45^+CD56^+ CD16^+) NK Gated %,[4]; gate CD45^+CD56^+ cells,15.62% and 12.65% and 20.43% and 7.71% and 11.87%
same,PD-1^+ NK cells (CD45^+CD56^+PD-1^+) NK Gated %,[4]; gate CD45^+CD56^+ cells,88.81% and 88.82% and 97.60% and 90.05% and 83.33%
same,CD16^+ NK cells (CD45^+CD56^+ CD16^+) Cell count,[4],0.17 ×10^5 and 0.15 ×10^5 and 0.20 ×10^5 and 0.05 ×10^5 and 0.07 ×10^5
same,NK cells (CD45^+CD56^+) Cell count,[4],1.08 ×10^5 and 1.19 ×10^5 and 0.94 ×10^5 and 0.67 ×10^5 and 0.56 ×10^5
same,PD-1^+ NK cells (CD45^+CD56^+PD-1^+) Cell count,[4],1.42 ×10^5 and 1.11 ×10^5 and 1.33 ×10^5 and 0.67 ×10^5 and 0.97 ×10^5
same,"Body Weight, Mean","[5]; Day 18, group mean",24.23 g
same,"Body Weight, Mean","[5]; Day 21, group mean",24.04 g
